Results published in patent US11981669B2, “1,7-naphthyridine derivative and preparation method and use therefor” (CSPC ZHONGQI PHARMACEUTICAL TECHNOLOGY (SHIJIAZHUANG) CO., …, priority 2018, dated 2024).

Tests used:
HIF-2α = assay: Expression of HIF-2α protein in Hep3B cells (western blot, grayscale analysis); format: cell-based, Human; details: for fold induction at 30 µM: Homo sapiens, 2 h, compound at 30 μM, 10 μM and 3 μM, read-out: HIF-2α level of the compound of the present disclosure/HIF-2α level of blank control
Experimental: (§1) A test compound was dissolved in dimethyl sulfoxide into a 100 mM stock solution, and then was diluted with 0.5% FBS-containing DMEM medium into 30 μM, 10 μM and 3 μM for later use. Human liver cancer cells Hep3B were seeded in a six-well plate at a density of 2.25*10^5 cells/well, 2 mL per well. After cultivation overnight, the cells were treated with compounds at different concentrations for 2 h. The proteins were extracted for western blot and further grayscale analysis.

reticulocytes = assay: Effect on reticulocytes of normal mice; format: in vivo, Balb/c mice; set-up: Reticulocytes (RETIC), average: unit not given here; details: 10 mg/kg p.o., once; 72 h after administration
Experimental: 72 Balb/c mice, male, were divided into 12 groups, 6 mice in each treatment group. In the positive drug control groups: the mice in the FG-4592 treatment groups were orally administered once, at two doses of 10 mg/kg and 50 mg/kg, and the mice in the rhEPO treatment group was intraperitoneaily injected once, at a dose of 100 IU/kg. The compounds of the present disclosure were all orally administered once at a dose of 10 mg/kg. 72 h after the administration, blood was collected from the orbit of all animals, and subjected to EDTA-K2 anticoagulation. Then reticulocytes (RETIC) were counted with an automatic blood cell analyzer.

CYP1A2 = CYP1A2 (Homo sapiens (Human), UniProt P05177); format: in vitro ADME
CYP1A2, sequence (P05177 whole entry): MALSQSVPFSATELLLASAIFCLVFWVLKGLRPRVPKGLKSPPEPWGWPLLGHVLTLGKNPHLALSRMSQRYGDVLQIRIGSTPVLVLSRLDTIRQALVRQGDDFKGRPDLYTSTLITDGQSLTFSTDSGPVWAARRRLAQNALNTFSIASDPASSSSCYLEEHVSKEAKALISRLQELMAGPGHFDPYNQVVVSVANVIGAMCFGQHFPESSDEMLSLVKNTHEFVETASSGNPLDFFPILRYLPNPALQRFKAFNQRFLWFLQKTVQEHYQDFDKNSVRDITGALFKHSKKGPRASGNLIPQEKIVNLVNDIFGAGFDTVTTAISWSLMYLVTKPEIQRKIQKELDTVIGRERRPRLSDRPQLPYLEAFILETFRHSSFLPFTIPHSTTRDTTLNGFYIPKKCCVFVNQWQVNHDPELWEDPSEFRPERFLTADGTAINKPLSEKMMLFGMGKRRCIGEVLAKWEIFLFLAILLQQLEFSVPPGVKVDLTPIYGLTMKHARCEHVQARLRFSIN
Description: (§2) The compounds of the present disclosure were subjected to the CYP450 enzyme inhibition assay.

[1] = test system: Erythropoietin in liver cancer cells Hep3B; assay: Expression of erythropoietin in liver cancer cells Hep3B in vitro (EPO ELISA of supernatant); format: cell-based, Human
Experimental: The cells were adherent cultured overnight, and after discarding the used medium. In the 96-well culture plate, the cells were washed once with 0.5% FBS-containing DMEM medium. […] 0.5% FBS-containing DMEM medium was used instead of the drug solution as the control well. After incubation in a 37° C., 5% CO2 incubator for 24 h, the supernatant was taken as a sample and frozen at −20° C. for later use. An Elisa kit (abeam) was used to detect EPO in the cell supernatant. A microplate reader was used to detect the OD value at 450/620 nm.

CYP2D6 = CYP2D6 (Homo sapiens (Human), UniProt P10635); assay: CYP enzyme inhibition assay; format: in vitro ADME
CYP2D6, sequence (P10635 whole entry): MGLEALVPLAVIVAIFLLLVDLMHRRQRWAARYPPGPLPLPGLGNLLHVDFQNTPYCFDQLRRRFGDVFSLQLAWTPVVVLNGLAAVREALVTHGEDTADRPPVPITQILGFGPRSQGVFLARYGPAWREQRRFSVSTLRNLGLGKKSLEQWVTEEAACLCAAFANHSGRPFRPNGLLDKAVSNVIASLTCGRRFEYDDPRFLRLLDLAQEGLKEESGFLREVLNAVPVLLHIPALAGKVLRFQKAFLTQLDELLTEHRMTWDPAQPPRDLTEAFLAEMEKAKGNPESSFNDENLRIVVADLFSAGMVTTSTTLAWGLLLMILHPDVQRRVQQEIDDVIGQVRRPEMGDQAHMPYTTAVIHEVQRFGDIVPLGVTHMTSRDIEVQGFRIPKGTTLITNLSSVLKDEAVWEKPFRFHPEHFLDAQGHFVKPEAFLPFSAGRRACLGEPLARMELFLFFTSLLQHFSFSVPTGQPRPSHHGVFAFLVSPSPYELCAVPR
Description: as §2

CYP2C19 = CYP2C19 (Homo sapiens (Human), UniProt P33261); assay: CYP enzyme inhibition assay; format: in vitro ADME
CYP2C19, sequence (P33261 whole entry): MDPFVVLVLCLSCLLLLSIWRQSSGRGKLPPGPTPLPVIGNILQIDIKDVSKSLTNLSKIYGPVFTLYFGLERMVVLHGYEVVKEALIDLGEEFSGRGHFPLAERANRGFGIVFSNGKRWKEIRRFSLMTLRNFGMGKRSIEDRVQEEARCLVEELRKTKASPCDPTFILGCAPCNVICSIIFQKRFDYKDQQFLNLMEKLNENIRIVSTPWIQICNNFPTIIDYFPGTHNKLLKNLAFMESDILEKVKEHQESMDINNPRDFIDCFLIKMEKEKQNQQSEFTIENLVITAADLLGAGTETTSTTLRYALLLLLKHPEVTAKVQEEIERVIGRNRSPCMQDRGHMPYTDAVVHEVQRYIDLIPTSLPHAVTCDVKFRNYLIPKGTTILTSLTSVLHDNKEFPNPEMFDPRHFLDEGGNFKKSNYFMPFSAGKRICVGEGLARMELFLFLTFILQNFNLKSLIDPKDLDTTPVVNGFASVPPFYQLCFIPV
Description: as §2

CYP2C9 = CYP2C9 (Homo sapiens (Human), UniProt P11712); assay: CYP enzyme inhibition assay; format: in vitro ADME
CYP2C9, sequence (P11712 whole entry): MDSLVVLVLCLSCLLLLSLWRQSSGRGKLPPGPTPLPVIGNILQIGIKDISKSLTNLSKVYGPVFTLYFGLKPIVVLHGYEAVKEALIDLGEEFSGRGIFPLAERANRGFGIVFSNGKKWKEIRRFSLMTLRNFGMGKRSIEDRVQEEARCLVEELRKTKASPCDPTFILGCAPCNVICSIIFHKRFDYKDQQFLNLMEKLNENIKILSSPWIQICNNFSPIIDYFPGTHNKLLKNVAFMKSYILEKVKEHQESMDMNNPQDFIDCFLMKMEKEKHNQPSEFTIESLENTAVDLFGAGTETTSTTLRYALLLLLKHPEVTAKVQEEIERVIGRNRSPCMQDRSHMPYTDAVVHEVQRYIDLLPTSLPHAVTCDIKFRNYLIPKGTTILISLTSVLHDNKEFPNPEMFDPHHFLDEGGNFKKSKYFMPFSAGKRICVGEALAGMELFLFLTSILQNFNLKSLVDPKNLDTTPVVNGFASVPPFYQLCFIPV
Description: as §2

CYP3A4-M = CYP3A4-M (Homo sapiens (Human), UniProt P08684); assay: CYP enzyme inhibition assay; format: in vitro ADME
CYP3A4-M, sequence (P08684 whole entry): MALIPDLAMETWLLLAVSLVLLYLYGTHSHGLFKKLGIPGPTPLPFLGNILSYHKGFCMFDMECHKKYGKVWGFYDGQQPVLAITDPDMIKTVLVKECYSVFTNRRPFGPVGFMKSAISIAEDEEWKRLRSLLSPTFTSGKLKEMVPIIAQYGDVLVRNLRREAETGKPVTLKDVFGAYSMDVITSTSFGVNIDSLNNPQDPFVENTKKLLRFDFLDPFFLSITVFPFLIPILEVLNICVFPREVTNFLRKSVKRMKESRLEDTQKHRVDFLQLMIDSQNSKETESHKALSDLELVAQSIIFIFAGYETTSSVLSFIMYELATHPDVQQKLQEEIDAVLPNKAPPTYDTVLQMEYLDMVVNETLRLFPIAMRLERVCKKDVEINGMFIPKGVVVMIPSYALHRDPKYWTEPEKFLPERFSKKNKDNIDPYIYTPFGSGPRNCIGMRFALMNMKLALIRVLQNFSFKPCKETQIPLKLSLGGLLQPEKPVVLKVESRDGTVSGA
Description: as §2

HIF-1α = assay: Expression of HIF-1α protein in Hep3B cells (western blot, grayscale analysis); format: cell-based, Human; details: for fold induction at 30 µM: Homo sapiens, 2 h, compound at 30 μM, 10 μM and 3 μM, read-out: HIF-1α level of the compound of the present disclosure/HIF-1α level of blank control
Experimental: as §1

How did the “HIF-2α protein expression compared with blank control” value (HIF-2α) turn out when `O=C(O)CNC(=O)c1nc(Cl)c2nc(Oc3ccccc3)ccc2c1O` [Link-118, 2-(2-phenoxy-5-hydroxy-8-chloro-1,7-naphthyridine-6-formamido) Acetic Acid] was run?
Its value is “higher than that of the blank control”.

And the fold induction at 30 µM (HIF-2α)?
Its fold induction at 30 µM is 4.5 to 8.5.

And the “Reticulocytes (RETIC), average” value (reticulocytes)?
Its value is 8.62.

What about the IC50 (CYP1A2) of the same compound?
Its IC50 is > 50 µM.

What about the “EPO-enhancing effect compared with positive control drug FG4592” value [1] of the same compound?
The value was “higher than that of the positive control drug FG4592”.

And the IC50 (CYP2D6)?
The IC50 was > 50 µM.

And the IC50 (CYP2C19)?
The IC50 was > 50 µM.

What about the IC50 (CYP2C9) of the same compound?
Its IC50 is > 50 µM.

And the IC50 (CYP3A4-M)?
The IC50 was > 50 µM.

And the “HIF-1α protein expression compared with blank control” value (HIF-1α)?
The value was “higher than that of the blank control”.

And the “Promoting effect on HIF-1α expression compared with FG4592” value (HIF-1α)?
Its value is “stronger than that of the positive control drug FG4592”.

What about the fold induction at 30 µM (HIF-1α) of the same compound?
The fold induction at 30 µM was > 10.

For `O=C(O)CNC(=O)c1nc(Br)c2nc(Oc3ccccc3)ccc2c1O` [Link-121, 2-(2-phenoxy-5-hydroxy-8-bromo-1,7-naphthyridine-6-formamido) Acetic Acid], which “HIF-2α protein expression compared with blank control” value (HIF-2α) is on record?
Its value is “higher than that of the blank control”.

What about the fold induction at 30 µM (HIF-2α) of the same compound?
Its fold induction at 30 µM is 4.5 to 8.5.

What about the “Reticulocytes (RETIC), average” value (reticulocytes) of the same compound?
The value was 7.28.

And the IC50 (CYP1A2)?
The IC50 was > 50 µM.

What about the “EPO-enhancing effect compared with positive control drug FG4592” value [1] of the same compound?
The value was “higher than that of the positive control drug FG4592”.

And the IC50 (CYP2D6)?
Its IC50 is > 50 µM.

What about the IC50 (CYP2C19) of the same compound?
The IC50 was > 50 µM.

What about the IC50 (CYP2C9) of the same compound?
Its IC50 is > 50 µM.

And the IC50 (CYP3A4-M)?
The IC50 was > 50 µM.

What about the “HIF-1α protein expression compared with blank control” value (HIF-1α) of the same compound?
Its value is “higher than that of the blank control”.

What about the fold induction at 30 µM (HIF-1α) of the same compound?
The fold induction at 30 µM was 4.5 to 8.5.
